Data taken from US20260234123A1, “Inhibitors of NLRP3” (Mwyngil Therapeutics, Inc., priority 2023, published 2026).

System: IL1b release THP-1
Test: IL1b release THP-1 (ELISA)
Assay type: cell-based
Conditions: Homo sapiens; average EC50; THP-1 cells primed with 1 μg/ml LPS 4 h, stimulated with 10 μM Nigericin 2 h; IL-1β in supernatant by ELISA; read-out: THP 1 IL 1b, EC50
Procedure, shortened: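 THP-1 cells in serum-free medium were primed with 1 μg/ml LPS for 4 h, then stimulated with 10 μM nigericin for 2 h at 37° C., 5% CO2. IL-1β in supernatant measured by ELISA; EC50 values binned into A–E ranges.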

Compared with `CCN1CCC[C@@H](Nc2nnc(-c3ccc(C(F)(F)F)cc3NC(C)=O)cc2C)C1` [Compound 133, N-[2-[6-[[(3R)-1-ethyl-3-piperidyl]amino]-5-methyl-pyridazin-3-yl]-5-(trifluoromethyl)phenyl]acetamide], `CCN1CCC[C@@H](Nc2nnc(-c3ccc(C(F)(F)F)cc3NS(C)(=O)=O)cc2C)C1` [Compound 8, (R)—N-(2-(6-((1-Ethylpiperidin-3-yl)amino)-5-methylpyridazin-3-yl)-5-(trifluoromethyl)phenyl) methanesulfonamide] is lower in EC50: 500 to 1000 nM for the first, under 500 nM for the second. The second is the more potent here.

First: CC(=O)Nc1cc(C(F)(F)F)ccc1-c1nnc(N[C@@H]2CCCN(C(C)C)C2)cc1C [Compound 136, N-[2-[6-[[(3R)-1-isopropyl-3-piperidyl]amino]-4-methyl-pyridazin-3-yl]-5-(trifluoromethyl)phenyl]acetamide]
Second: CCN1CCC[C@@H](Nc2cc(C)c(-c3ccc(C(F)(F)F)cc3NS(=O)(=O)C(C)C)nn2)C1 [Compound 70, N-[2-[6-[[(3R)-1-ethyl-3-piperidyl]amino]-4-methyl-pyridazin-3-yl]-5-(trifluoromethyl)phenyl]propane-2-sulfonamide]
The EC50 of the first is lower: 500 to 1000 nM for the first, 1000 to 5000 nM for the second.

`Cc1cc(-c2ccc(C(F)(F)F)cc2NS(C)(=O)=O)nnc1N[C@@H]1CCCN(C2CC2)C1` [Compound 42, (R)—N-(2-(6-((1-Cyclopropylpiperidin-3-yl)amino)-5-methylpyridazin-3-yl)-5-(trifluoromethyl)phenyl) methanesulfonamide] and `Cc1cc(-c2ccc(C(F)(F)F)cc2NS(C)(=O)=O)nnc1N[C@@H]1CCCN(C)C1` [Compound 7, (R)—N-(2-(5-Methyl-6-((1-methylpiperidin-3-yl)amino)pyridazin-3-yl)-5-(trifluoromethyl)phenyl) methanesulfonamide] cannot be ordered by EC50: under 500 nM for the first, under 500 nM for the second.

`Cc1cc(N[C@@H]2CCCN(CC(C)(C)O)C2)nnc1-c1ccc(C(F)(F)F)cc1NS(C)(=O)=O` [Compound 47] and `Cc1cc(N[C@@H]2CCCN(CCO)C2)nnc1-c1ccc(C(F)(F)F)cc1NS(C)(=O)=O` [Compound 6, (R)—N-(2-(6-((1-(2-Hydroxyethyl)piperidin-3-yl)amino)-4-methylpyridazin-3-yl)-5-(trifluoromethyl)phenyl) methanesulfonamide] fall in the same range of EC50: 500 to 1000 nM for the first, 500 to 1000 nM for the second.

`Cc1cc(-c2ccc(C(F)(F)F)cc2N)nnc1N[C@@H]1CCCN(C(C)C)C1` [Compound 118, 6-[2-amino-4-(trifluoromethyl)phenyl]-N-[(3R)-1-isopropyl-3-piperidyl]-4-methyl-pyridazin-3-amine] and `CCNc1cc(C(F)(F)F)ccc1-c1cc(C)c(N[C@@H]2CCCN(C(C)C)C2)nn1` [Compound 114, 6-[2-(ethylamino)-4-(trifluoromethyl)phenyl]-N-[(3R)-1-isopropyl-3-piperidyl]-4-methyl-pyridazin-3-amine] cannot be ordered by EC50: under 500 nM for the first, under 500 nM for the second.

Compared with `Cc1cc(N[C@@H]2CCCN(C3CCC3)C2)nnc1-c1ccc(C(F)(F)F)cc1NS(C)(=O)=O` [Compound 34], `Cc1cc(C(F)(F)F)cc(NS(C)(=O)=O)c1-c1ccc(N[C@@H]2CCCN(C)C2)nn1` [Compound 1, (R)—N-(3-methyl-2-(6-((1-methylpiperidin-3-yl)amino)pyridazin-3-yl)-5-(trifluoromethyl)phenyl) methanesulfonamide] is higher in EC50: under 500 nM for the first, 1000 to 5000 nM for the second.

First: CCN1CCC[C@@H](Nc2nnc(-c3ccc(C(F)(F)F)cc3N)cc2C)C1 [Compound 131, 6-[2-amino-4-(trifluoromethyl)phenyl]-N-[(3R)-1-ethyl-3-piperidyl]-4-methyl-pyridazin-3-amine]
Second: Cc1cc(-c2ccc(C(F)(F)F)c3cn[nH]c23)nnc1N[C@@H]1CCCN(CCO)C1 [Compound 19, 2-[(3R)-3-[[4-methyl-6-[4-(trifluoromethyl)-1H-indazol-7-yl]pyridazin-3-yl]amino]-1-piperidyl]ethanol]
The EC50 of the first is lower: under 500 nM for the first, over 30000 nM for the second.

`Cc1cc(-c2ccc(C(F)(F)F)cc2NC(=O)C(C)(C)C)nnc1N[C@@H]1CCCN(C(C)C)C1` [Compound 135, N-[2-[6-[[(3R)-1-isopropyl-3-piperidyl]amino]-5-methyl-pyridazin-3-yl]-5-(trifluoromethyl)phenyl]-2,2-dimethyl-propanamide] showed an EC50 of 500 to 1000 nM.
